Assay results: US8604217B2, “Compound, a process for its preparation, a pharmaceutical composition, use of a compound, a method for modulating or regulating serine/threonine kinases and a serine/threonine kinases modulating agent” (Selvita S.A., priority 2009, dated 2013)
≈ marks a conversion by molar mass, not a printed value.

How the values were obtained:
[1] = tested on: human breast adenocarcinoma MCF7 cells; experiment: Growth inhibition test (MTS) on MCF7 cells; assay type: cell-based; conditions: Homo sapiens, MCF7, 72 hours, read-out: MCF-7 ED50
Outline: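 MCF7 cells seeded in DMEM with 10% FCS, dosed next day at 0.1–10 micromol/L (diluted from 10 mmol/L DMSO stock) and cultured 72 h at 37° C, 5% CO2. MTS added for 2 h, absorbance read at 490 nm; % viability calculated relative to untreated cells as 100%.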

[2] = tested on: human colorectal adenocarcinoma SW480 cells; experiment: Growth inhibition test (MTS) on SW480 cells; assay type: cell-based; conditions: Homo sapiens, SW480, 72 hours, read-out: SW480 ED50
[3] = tested on: human acute lymphocytic leukemia E6.1 Jurkat cells; experiment: Growth inhibition test (MTS) on E6.1 Jurkat cells; assay type: cell-based; conditions: 72 hours, read-out: Jurkat ED50
[4] = tested on: human erytroblast leukemia HEL-92.1.7 cells; experiment: Growth inhibition test (MTS) on HEL-92.1.7 cells; assay type: cell-based; conditions: 72 hours, read-out: HEL92 ED50
Outline: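 HEL-92.1.7 cells in RPMI 1640 with 10% FCS, exposed next day to compound at 0.1–10 micromol/L for 72 h at 37° C. Viability by MTS absorbance at 490 nm after 2 h, as % of untreated cells.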

[5] = Solubility in phosphate buffer pH 7.4; assay type: physicochemical; conditions: aqueous buffer, kinetic from dmso stock, pH 7.4, 24 hours at 37° C., 1% DMSO
Source text: In general, tetrahalogenated benzimidazoles are poorly soluble compounds, what renders their chances for successful therapeutic administration in commonly used routes of administration and standard conditions. In contrast to previously published tetrabromobenzimidazoles exemplified by DMAT, certain compounds provided in the application show a markedly increase in water solubility. As solubility is one of the key parameters that influences compound pharmacokinetics, permeability and therefore also activity in vitro and in vivo, improved solubility of the selected compounds is a surprising feature that can lead to improved efficacy in treating PIM kinase associated disease conditions.

[6] = tested on: tumors derived from MV4-11 cells xenografted in nude mice; experiment: In vivo anticancer activity, MV4-11 xenograft; conditions: QD, PO; for TGI (%): 150 mg/kg, 21 days, MV4-11 xenograft in nude mice; for tumor growth inhibition (in words): after 21 days of treatment
Method: The anticancer activity of compounds 20, 359 and 416 was assessed on tumors derived from MV4-11 cells xenografted in nude mice. Mice were inoculated with 5*10^6 cells and the tumor volume was measured until it reached 100 mm^3. Throughout the whole study tumor volume has been measured (FIG. 2) and tumor growth inhibition (TGI) was calculated.

PKBβ(h) = PKBβ(h) (Homo sapiens (Human), UniProt P31751); experiment: KinaseProfiler kinase panel; assay type: biochemical
Chain of PKBβ(h) (P31751 whole entry): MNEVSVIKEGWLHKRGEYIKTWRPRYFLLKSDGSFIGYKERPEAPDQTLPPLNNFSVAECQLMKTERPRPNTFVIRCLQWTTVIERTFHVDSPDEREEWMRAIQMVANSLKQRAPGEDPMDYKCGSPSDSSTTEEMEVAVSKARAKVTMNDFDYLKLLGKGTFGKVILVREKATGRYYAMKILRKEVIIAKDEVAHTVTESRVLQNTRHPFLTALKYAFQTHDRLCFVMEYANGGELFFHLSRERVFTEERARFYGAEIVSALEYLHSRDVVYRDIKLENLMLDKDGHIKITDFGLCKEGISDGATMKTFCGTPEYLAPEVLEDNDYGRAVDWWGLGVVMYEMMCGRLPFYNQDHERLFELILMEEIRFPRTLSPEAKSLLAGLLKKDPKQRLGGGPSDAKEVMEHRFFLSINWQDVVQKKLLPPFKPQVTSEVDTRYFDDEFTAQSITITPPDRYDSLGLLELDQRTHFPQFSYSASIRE

PDGFRβ(h) = PDGFRβ(h) (Homo sapiens (Human), UniProt P09619); experiment: KinaseProfiler kinase panel; assay type: biochemical
Chain of PDGFRβ(h) (P09619 33-1106): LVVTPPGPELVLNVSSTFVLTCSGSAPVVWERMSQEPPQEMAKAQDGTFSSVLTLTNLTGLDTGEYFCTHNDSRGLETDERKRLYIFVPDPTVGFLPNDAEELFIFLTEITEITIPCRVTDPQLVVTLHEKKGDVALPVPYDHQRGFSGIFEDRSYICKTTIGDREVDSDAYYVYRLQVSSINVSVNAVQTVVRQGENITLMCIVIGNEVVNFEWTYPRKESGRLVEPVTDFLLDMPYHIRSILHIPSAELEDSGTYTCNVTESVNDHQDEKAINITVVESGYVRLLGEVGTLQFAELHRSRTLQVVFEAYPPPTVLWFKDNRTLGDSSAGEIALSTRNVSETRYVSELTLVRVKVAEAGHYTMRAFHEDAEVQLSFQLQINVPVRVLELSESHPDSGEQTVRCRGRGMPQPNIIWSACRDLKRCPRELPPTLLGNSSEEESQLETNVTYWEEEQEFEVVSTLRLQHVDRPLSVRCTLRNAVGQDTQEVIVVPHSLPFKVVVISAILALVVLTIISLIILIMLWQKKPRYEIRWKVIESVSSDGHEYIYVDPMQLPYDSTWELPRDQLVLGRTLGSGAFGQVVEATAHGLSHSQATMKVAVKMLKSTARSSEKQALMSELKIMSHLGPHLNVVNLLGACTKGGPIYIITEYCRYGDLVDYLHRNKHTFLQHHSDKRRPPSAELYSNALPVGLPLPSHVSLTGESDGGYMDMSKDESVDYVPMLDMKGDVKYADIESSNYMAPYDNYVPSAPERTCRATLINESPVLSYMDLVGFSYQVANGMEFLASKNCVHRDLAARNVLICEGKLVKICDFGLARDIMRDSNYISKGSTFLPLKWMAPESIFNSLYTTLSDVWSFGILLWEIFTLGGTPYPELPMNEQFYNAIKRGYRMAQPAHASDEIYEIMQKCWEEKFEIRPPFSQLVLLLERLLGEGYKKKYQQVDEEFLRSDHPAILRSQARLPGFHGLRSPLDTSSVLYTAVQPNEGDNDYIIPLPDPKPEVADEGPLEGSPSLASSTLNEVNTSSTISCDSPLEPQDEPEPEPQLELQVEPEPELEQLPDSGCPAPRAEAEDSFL

SMILES | IC50 [1] [µM] | IC50 [2] [µM] | IC50 [3] [µM] | IC50 [4] [µM] | remaining activity at 1 µM (PKBβ(h)) [%] | remaining activity at 1 µM (PDGFRβ(h)) [%] | solubility at 24 h [5] [µM] | TGI (%) [6] [%] | tumor growth inhibition (in words) [6]
NCCCNc1nc2c(Br)c(Br)c(Br)c(Br)c2[nH]1 [Compound 11, N-(3-aminopropyl)-4,5,6,7-tetrabromo-1H-benzo[d]imidazol-2-amine] | 4.7 | 2.47 | 3.46 | 5.7 | – | – | – | – | –
Brc1c(Br)c(Br)c2[nH]c(N3CCNCC3)nc2c1Br [Compound 20, 4,5,6,7-tetrabromo-2-(piperazin-1-yl)-1H-benzo[d]imidazole] | 2.47 | 3.45 | – | 6.04 | – | – | 81 (≈ 41.9 µg/mL) | −57.8 | most pronounced tumor growth inhibition
NC1CCC(Nc2nc3c(Br)c(Br)c(Br)c(Br)c3[nH]2)CC1 (stereo not drawn) [Compound 87, N1-(4,5,6,7-tetrabromo-1H-benzo[d]imidazol-2-yl)cyclohexane-1,4-diamine] | 5.62 | 2.03 | 5.81 | 9.07 | – | – | – | – | –
CC(C)n1c(N2CCNCC2)nc2c(Br)c(Br)c(Br)c(Br)c21 [Compound 359, 4,5,6,7-tetrabromo-1-isopropyl-2-(piperazin-1-yl)-1H-benzo[d]imidazole] | 1.6 | 1.6 | – | 3.85 | – | – | – | −84.7 | most pronounced tumor growth inhibition
CCCCCNC1CCCCC1Nc1nc2c(Br)c(Br)c(Br)c(Br)c2[nH]1 (stereo not drawn) [Compound 413, N1-(4,5,6,7-tetrabromo-1H-benzo[d]imidazol-2-yl)-N2-pentylcyclohexane-1,2-diamine] | 1.3 | 0.58 | – | 3.29 | – | – | – | – | –
CCn1c(N2CCNCC2)nc2c(Br)c(Br)c(Br)c(Br)c21 [Compound 416, 4,5,6,7-tetrabromo-1-ethyl-2-(piperazin-1-yl)-1H-benzo[d]imidazole] | 1.26 | 1.25 | – | 2.72 | 90 | 102 | – | −102.8 | most pronounced tumor growth inhibition
CCCn1c(N2CCNCC2)nc2c(Br)c(Br)c(Br)c(Br)c21 [Compound 417, 4,5,6,7-tetrabromo-2-(piperazin-1-yl)-1-propyl-1H-benzo[d]imidazole] | 2.54 | 2.56 | – | 3.28 | – | – | – | – | –

The next lines start with results.

IC50 [1] [µM] | IC50 [2] [µM] | IC50 [3] [µM] | IC50 [4] [µM] | remaining activity at 1 µM (PKBβ(h)) [%] | remaining activity at 1 µM (PDGFRβ(h)) [%] | SMILES | solubility at 24 h [5] [µM] | TGI (%) [6] [%] | tumor growth inhibition (in words) [6]
3.49 | 1.27 | – | 5.71 | – | – | Brc1c(Br)c(Br)c2[nH]c(NC3CCNCC3)nc2c1Br [Compound 435, 4,5,6,7-tetrabromo-N-(piperidin-4-yl)-1H-benzo[d]imidazol-2-amine] | – | – | –
1.3 | 0.7 | – | 0.6 | – | – | CCn1c(N2CCN(CCN3CCNCC3)CC2)nc2c(Br)c(Br)c(Br)c(Br)c21 [Compound 441, 4,5,6,7-tetrabromo-1-ethyl-2-(4-(2-(piperazin-1-yl)ethyl)piperazin-1-yl)-1H-benzo[d]imidazole] | – | – | –
2 | 1 | – | 0.8 | – | – | CCn1c(N2CCN(CCCN3CCOCC3)CC2)nc2c(Br)c(Br)c(Br)c(Br)c21 [Compound 450] | – | – | –
> 10 | > 10 | 8.18 | – | – | – | CN(C)c1nc2c(Br)c(Br)c(Br)c(Br)c2[nH]1 [DMAT, 2-dimethylamino-4,5,6,7-tetrabromo-1H-benzimidazole, reference compound] | < 10 | – | –
